This is an account of results in article PMC9364363 (RSC Advances, 2022).

Converted amounts (≈) assume the structure as drawn. Read-outs that look alike come from different tables or passages of the source.

The subject of one data set is M. avium subsp. avium. In words: microbe, parasite or virus in culture. Format: cell-based, Mycobacterium avium subsp. avium. The note with it: read-out: IC50 M. avium subsp. avium.
The next data set has as its system M. abscessus. In words: microbe, parasite or virus in culture. The settings on record: read-out: IC50 M. abscessus. Format: cell-based, Mycobacterium abscessus.
The test system of another data set is M. intracellulare. In words: microbe, parasite or virus in culture. Format: cell-based, Mycobacterium intracellulare. The settings on record: read-out: IC50 M. intracellulare.
In data set [1] the test system is MRC-5 lung fibroblast cell line.
The next data set concerns Mtb H37Ra^lux. Nature of the data set: microbe, parasite or virus in culture. The note with it: for IC50: read-out: Mtb H37Ra^lux IC50; for MIC: read-out: Mtb H37Ra^lux IC90 (MIC). The data set is classed as cell-based, Mycobacterium tuberculosis.
A further data set in a line: in vitro. The settings on record: human.
The subject of another data set is M. smegmatis. The data set is classed as cell-based, Mycobacterium smegmatis. The settings on record: read-out: IC50 M. smegmatis; luminometry, 3 days.
[2] abbreviates: Mycobacteroides abscessus, 72 h.
Where [3] appears, read: Mycobacterium intracellulare, 168 h.
[4] abbreviates: Mycobacterium tuberculosis, H37RA, 168 h.

The term IC50 denotes the concentration needed to halve the response being measured.

`Cc1nc2sccn2c1C(=O)N1CCN(CCn2cc(-c3ccc(C(C)(C)C)cc3)nn2)CC1` [IT02, (4-(2-(4-(4-(tert-Butyl)phenyl)-1H-1,2,3-triazol-1-yl)-ethyl)-piperazin-1-yl)(6-methylimidazo-[2,1-b]-thiazol-5-yl)-methanone]: the IC50 with M. avium subsp. avium (Mycobacterium avium, 168 h) was 126 µM; in the data set on M. abscessus (setting [2]), above 128 µM; with M. intracellulare (setting [3]), 119 µM; with Mtb H37Ra^lux (setting [4]), 5.2 µM. The “T.I. CC50/IC50” value in data set [1] was 8.8. Also, the MIC in the data set with Mtb H37Ra^lux (setting [4]) was 12.8 µM (≈ 6.13 µg/mL). In the data set “in vitro”, this compound displayed a CC50 of 46 µM.

Turning to `CCCCCCCCCc1cn(CCN2CCN(C(=O)c3c(C)nc4sccn34)CC2)nn1` [IT03, (6-Methylimidazo-[2,1-b]-thiazol-5-yl)(4-(2-(4-nonyl-1H-1,2,3-triazol-1-yl)-ethyl)-piperazin-1-yl)-methanone], the IC50 in the data set on M. avium subsp. avium (Mycobacterium avium, 168 h) was above 128 µM; with M. abscessus (setting [2]), above 128 µM; in the data set with M. intracellulare (setting [3]), 63.4 µM; in the data set with Mtb H37Ra^lux (setting [4]), 2.88 µM. Also, the “T.I. CC50/IC50” value in data set [1] is on record as 15.8. Also, the MIC with Mtb H37Ra^lux (setting [4]) was determined as 10.2 µM (≈ 4.82 µg/mL). Moreover, the CC50 in “in vitro” was determined as 45.5 µM.

With `Cc1nc2sccn2c1C(=O)N1CCN(CCn2cc(CSc3nc4ccccc4[nH]3)nn2)CC1` [IT04, (4-(2-(4-(((1H-Benzo-[d]-imidazole-2-yl)-thio)-methyl)-1H-1,2,3-triazol-1-yl)-ethyl)-piperazin-1-yl)(6-methylimidazo-[2,1-b]-thiazol-5-yl)-methanone], the IC50 was above 128 µM in the data set with M. avium subsp. avium (Mycobacterium avium, 168 h); above 128 µM in the data set on M. abscessus (setting [2]); above 128 µM in the data set with M. intracellulare (setting [3]); 3.94 µM in the data set with Mtb H37Ra^lux (setting [4]). In addition, in data set [1], the “T.I. CC50/IC50” value is 32.5. Moreover, in the data set with Mtb H37Ra^lux (setting [4]), the MIC worked out at 14.6 µM (≈ 7.41 µg/mL). In the data set “in vitro”, this compound registered a CC50 above 128 µM.

On to `Cc1nc2sc3ccccc3n2c1C(=O)N1CCN(Cc2cn(-c3cccc([N+](=O)[O-])c3)nn2)CC1` [IT08, (2-Methylbenzo-[d]-imidazo-[2,1-b]-thiazol-3-yl)(4-((1-(3-nitrophenyl)-1H-1,2,3-triazol-4-yl)-methyl)-piperazin-1-yl)-methanone], for which the IC50 in the data set with M. avium subsp. avium (Mycobacterium avium, 168 h) was above 128 µM; with M. abscessus (setting [2]), above 128 µM; with M. intracellulare (setting [3]) it was above 128 µM; in the data set with Mtb H37Ra^lux (setting [4]), 2.96 µM. The “T.I. CC50/IC50” value in data set [1] was 43.2. Moreover, the MIC in the data set on Mtb H37Ra^lux (setting [4]) was 11.8 µM (≈ 5.94 µg/mL). The compound further yielded a CC50 in the data set “in vitro” above 128 µM.

In the case of `Cc1ccc(-n2cc(CN3CCN(C(=O)c4c(C)nc5sc6ccccc6n45)CC3)nn2)cc1C` [IT09, (4-((1-(3,4-Dimethylphenyl)-1H-1,2,3-triazol-4-yl)-methyl)-piperazin-1-yl)(2-methylbenzo-[d]-imidazo-[2,1-b]-thiazol-3-yl)-methanone], the IC50 in the data set on M. avium subsp. avium (Mycobacterium avium, 168 h) was above 128 µM; with M. abscessus (setting [2]) it was above 128 µM; in the data set with M. intracellulare (setting [3]), above 128 µM; with Mtb H37Ra^lux (setting [4]), 3.46 µM. Also, the “T.I. CC50/IC50” value in data set [1] was determined as 37.0. In the data set with Mtb H37Ra^lux (setting [4]), the MIC was 13.5 µM (≈ 6.55 µg/mL). The CC50 in the data set “in vitro” is above 128 µM.

Take `Cc1nc2sc3ccccc3n2c1C(=O)N1CCN(Cc2cn(-c3ccc([N+](=O)[O-])cc3)nn2)CC1` [IT10, (2-Methylbenzo-[d]-imidazo-[2,1-b]-thiazol-3-yl)(4-((1-(4-nitrophenyl)-1H-1,2,3-triazol-4-yl)-methyl)-piperazin-1-yl)-methanone]: the IC50 in the data set on M. avium subsp. avium (Mycobacterium avium, 168 h) was above 128 µM; with M. abscessus (setting [2]), above 128 µM; with M. intracellulare (setting [3]) it was above 128 µM; in the data set with Mtb H37Ra^lux (setting [4]), 2.32 µM. Besides, the “T.I. CC50/IC50” value in data set [1] is 55.2. Besides, in the data set on Mtb H37Ra^lux (setting [4]), the MIC stood at 7.05 µM (≈ 3.54 µg/mL). In the data set “in vitro”, this compound yielded a CC50 above 128 µM.

For the compound `Cc1nc2sc3ccccc3n2c1C(=O)N1CCN(Cc2cn(-c3cccc(Cl)c3)nn2)CC1` [IT11, (4-((1-(3-Chlorophenyl)-1H-1,2,3-triazol-4-yl)-methyl)-piperazin-1-yl)(2-methylbenzo-[d]-imidazo-[2,1-b]-thiazol-3-yl)-methanone], the IC50 with M. avium subsp. avium (Mycobacterium avium, 168 h) was 100 µM; with M. abscessus (setting [2]), above 128 µM; in the data set with M. intracellulare (setting [3]), 98.8 µM; in the data set on Mtb H37Ra^lux (setting [4]) it was 3.86 µM. For the same compound, the “T.I. CC50/IC50” value in data set [1] worked out at 7.6. Moreover, in the data set on Mtb H37Ra^lux (setting [4]), the MIC is 14.5 µM (≈ 7.11 µg/mL). The compound also had a CC50 in the data set “in vitro” of 29.4 µM.

In the case of `Cc1nc2sc3ccccc3n2c1C(=O)N1CCN(CCn2cc(-c3ccc(C(C)(C)C)cc3)nn2)CC1` [IT13, (4-(2-(4-(4-(tert-Butyl)-phenyl)-1H-1,2,3-triazol-1-yl)-ethyl)-piperazin-1-yl)(2-methylbenzo-[d]-imidazo-[2,1-b]-thiazol-3-yl)-methanone], the IC50 in the data set with M. avium subsp. avium (Mycobacterium avium, 168 h) was 17.1 µM; in the data set with M. abscessus (setting [2]) it was above 128 µM; with M. intracellulare (setting [3]), above 128 µM; with Mtb H37Ra^lux (setting [4]), 3.19 µM. Also, the “T.I. CC50/IC50” value in data set [1] was determined as 13.7. The MIC in the data set on Mtb H37Ra^lux (setting [4]) was 7.24 µM (≈ 3.82 µg/mL). Moreover, in the data set “in vitro”, the CC50 turned out to be 43.7 µM.

For the compound “(4-(2-(4-((1H-Benzo-[d]-imidazole-2-yl)-thio)-1H-1,2,3-triazol-1-yl)-ethyl)-piperazin-1-yl)(2-methylbenzo-[d]-imidazo[2,1-b]-thiazol-3-yl)-methanone [IT16]”, the IC50 in the data set on M. avium subsp. avium (luminometry, 7 days) was 124 µM; in the data set on M. smegmatis it was 103 µM; in the data set with M. abscessus (luminometry, 3 days) it was above 128 µM; with M. intracellulare (luminometry, 7 days) it was above 128 µM; in the data set on Mtb H37Ra^lux, 7.09 µM. Also, the “T.I. CC50/IC50” value in data set [1] turned out to be 8.2. Moreover, in the data set on Mtb H37Ra^lux, the “Mtb H37Ra^lux IC90 (MIC)” value came out at 14.49 µM.
